# Experiments:
# HepG2 cells = experiment: Transfection efficiency of HepG2 cells in vitro (GpLuc mRNA, luminescence of supernatant); type: cell-based, human; settings: for effect on transfection efficiency (in words): added to polymer PB83, 24 h post transfection, compared to polymer alone
# Protocol: This example describes the evaluation of the effect of different polymer-lipid(oid) formulations (as described under Example ▪1) on transfection efficiency on HepG2 cells (human liver carcinoma cell line). As a read-out for transfection efficiency, GpLuc mRNA (SEQ ID NO: 14) was used as a cargo. Successful transfection with the cargo leads to the translation of the luciferase protein and to a secretion of Gp luciferase protein into the cell culture supernatant.
# A volume of 0.2 mL HepG2 cells (10.000 cells) were seeded in a 96 well tissue culture plate. After removing the medium from each well, 100 μL RPMI 1640 medium (with 1% Penicillin and 1% Streptomycin, 1% L-Glutamin) was added to each well. Afterwards, HepG2 cells were transfected with 100 μL transfection mix (in triplicates) of the above described polymer-lipid(oid) mRNA complexes and respective controls (in triplicates), and cells were incubated at 37° C. and 5% CO2 for 90 minutes. After incubation, 150 μL medium was exchanged with 150 μL fresh RPMI 1640 medium supplemented with 10% fetal calf serum. Twenty-four hours post transfection, 10 μL of supernatant of each well was extracted and used for further luminescence analysis (see below).
# A volume of 10 μL supernatant was transferred to a 96 well plate for GpLuc measurement. Then, coelenterazine working solution (100 μM) was prepared (1 mL coelenterazine stock solution (4.72 mM in EtOH) in 49 mL phosphate buffered saline supplemented with 5 mM NaCl, pH 7.2). A volume of 100 μL coelenterazine working solution was used as a substrate for GpLuc and measured after 5 seconds in a commercially available microplate reader.
# [1] = tested on: hemagglutinin (HA) protein of influenza A virus (A/Netherlands/602/2009 (H1N1)); experiment: Hemagglutination inhibition assay after intramuscular vaccination with HA-mRNA and 3-C12-OH (second Example 7); type: in vivo; settings: Balb/c mice, 10 μg HA-mRNA R2564 with 3-C12-OH, i.m.; after prime and boost vaccination
# [2] = tested on: hemagglutinin (HA) protein of influenza A virus (A/Netherlands/602/2009 (H1N1)); experiment: ELISA of influenza specific IgG1 and IgG2a antibodies in sera of vaccinated mice; type: in vivo; settings: Balb/c mice, 10 μg HA-mRNA with 3-C12-OH i.m.; 21 days after prime and 14 days after boost
# [3] = tested on: hemagglutinin (HA) protein of influenza A virus (A/Netherlands/602/2009 (H1N1)); type: in vivo; settings: Balb/c mice, 10 μg HA-mRNA with 3-C12-OH i.m.; splenocytes 14 days after boost
# Sol8 muscle cells = experiment: Transfection efficiency of differentiated Sol8 muscle cells in vitro (GpLuc mRNA); type: cell-based, mouse; settings: added to polymer PB83, low- and high-charge ratio complexes, 24 h post transfection
# Excerpt: The purpose of this example is to assess the effect of lipid additives such as permanently cationic lipids or lipidoids on transfection/expression efficiency in Sol8 cells. […] Sol8 is a myogenic cell line isolated by Daubas et al. from primary cultures of soleus muscle taken from the leg of a normal C3H mouse. As a read-out for transfection efficiency, GpLuc mRNA (SEQ ID NO: 14) was used as the cargo. A successful transfection with the cargo leads to the translation of the luciferase protein and to a secretion of Gp luciferase protein into the cell culture supernatant. For further details on the GpLuc mRNA cargo see Example 1.
# For a subset on hydrogel, a volume of 0.2 mL Sol8 cells (20.000 cells) were seeded in 96 well glass bottom plates (Softwell Hydrogel coated with collagen (elasticity E=12 kPa)) on day 1. For another subset without hydrogel, a volume of 0.2 mL with 10.000 Sol8 cells per well were seeded in a 96 well glass bottom plates.
# After removing the medium from each well, 100 μL DMEM medium (with 2% horse serum) was added to each well. Afterwards, on day 2, Sol8 cells were transfected with 100 μL transfection mix of polymer-lipid(oid) complexes (in triplicates without serum) and respective controls (also in triplicates), and cells were incubated at 37° C. and 5% CO2 for 120 minutes (non-hydrogel subset) or respectively 90 minutes (hydrogel subset). After incubation, 150 μL medium was exchanged with 150 μL fresh DMEM medium supplemented with 10% fetal calf serum.
# Twenty-four hours post transfection, i.e. on day 3, 10 μL of supernatant of each well was extracted and used for quantification of protein expression (measurement of GpLuc) via luminescence analysis as described above.
SMILES,effect on transfection efficiency (in words) (HepG2 cells),antibody titers against the HA protein compared to HA-mRNA (R2564) alone [1],"functional antibody titers, IgG1 subtype, compared to mRNA without lipid [2]","functional antibody titers, IgG2a subtype, compared to mRNA without lipid [2]",IFNy production compared to non-lipid-formulated mRNA [3],effect on transfection efficiency / expression level (in words) (Sol8 muscle cells),"increase in transfection efficiency compared to transfections with polymer alone (HepG2 cells; combination with polymer PB83, high-charge complexes N/P 2, N/P 4, N/P 6, 24 h post transfection)"
CCCCCCCCCCC(O)C[N+](C)(C)CCN(CC[N+](C)(C)CC(O)CCCCCCCCCC)CC[N+](C)(C)CC(O)CCCCCCCCCC (centres unmarked) [3-C12-OH-cat],profound increase,–,–,–,–,–,–
CCCCCCCCCCC(O)CNCCN(CCNCC(O)CCCCCCCCCC)CCNCC(O)CCCCCCCCCC (centres unmarked) [3-C12-OH],profound increase,significantly higher,significantly higher,significantly higher,significant increased,profound increase,–
CCCCCCCCCCCCNCCN(CCNCCCCCCCCCCCC)CCNCCCCCCCCCCCC [3-C12],profound increase,–,–,–,–,profound increase,–
"CCCCCCCC/C=C\CCCCCCCC(=O)OCC(C[N+](C)(C)C)OC(=O)CCCCCCC/C=C\CCCCCCCC (centres unmarked) [DOTAP, 1,2-dioleoyl-3-trimethylammonium-propane, reference compound]",–,–,–,–,–,effective,up to 3 log units

# — patent US20190336608A1, “CATIONIC CARRIERS FOR NUCLEIC ACID DELIVERY” (priority 2016, published 2019)
